The record followed here is patent US9334289B2, “Cephem compound having catechol or pseudo-catechol structure” (SHIONOGI & CO., LTD., priority 2011, dated 2016).

Common to all, as to test: MIC, CLSI broth microdilution, Test Example 1
Holding throughout (assay type): cell-based
(In general: Broth dilution looks for growth in wells or tubes with falling amounts of substance.)

Experiment [1] has as its system P. aeruginosa SR24. The following applies: Pseudomonas aeruginosa, SR24; Ceftazidime resistance strain; cation-adjusted Mueller Hinton broth containing human apo-transferrin; 5×10^5 cfu/mL; read-out: Minimum Inhibitory Concentration (MIC) P. aeruginosa SR24.
Experiment [2] concerns E. coli ATCCBAA-199. Conditions: Escherichia coli, ATCCBAA199; SHV-3 ESBL producing strain; cation-adjusted Mueller Hinton broth containing human apo-transferrin; 5×10^5 cfu/mL; read-out: Minimum Inhibitory Concentration (MIC) E. coli ATCC BAA-199. As to the method: (§1) Measurement of Minimum Inhibitory Concentration (MIC: μg/mL) was conducted according to CLSI (Clinical and Laboratory Standards Institute) method, and the amount of bacteria for inoculation was 5×10^5 cfu/mL, and cation-adjusted Mueller Hinton broth containing human apo-transferrin was used as a test medium, and the experiment was conducted using broth microdilution method. The bacteria used are listed below.

Experiment [3] deals with E. coli ATCCBAA-200. The following applies: Escherichia coli, ATCCBAA200; SHV-4 ESBL producing strain; cation-adjusted Mueller Hinton broth containing human apo-transferrin; 5×10^5 cfu/mL; read-out: Minimum Inhibitory Concentration (MIC) E. coli ATCC BAA-200. How it is done:
as §1

The subject of experiment [4] is P. aeruginosa SR24837. Conditions: Pseudomonas aeruginosa, SR24837; PER-1 ESBL producing strain; cation-adjusted Mueller Hinton broth containing human apo-transferrin; 5×10^5 cfu/mL; read-out: Minimum Inhibitory Concentration (MIC) P. aeruginosa SR24837. As to the method:
as §1

Experiment [5] concerns A. baumannii SR27323. Conditions: Acinetobacter baumannii, SR27323; OXA-23, OXA-58 carbapenemase producing strain; cation-adjusted Mueller Hinton broth containing human apo-transferrin; 5×10^5 cfu/mL; read-out: Minimum Inhibitory Concentration (MIC) A. baumannii SR27323. How it is done:
as §1

Experiment [6] relates to K. pneumoniae ATCCBAA-1705. Conditions: Klebsiella pneumoniae, ATCCBAA1705; KPC-2 carbapenemase producing strain; cation-adjusted Mueller Hinton broth containing human apo-transferrin; 5×10^5 cfu/mL; read-out: Minimum Inhibitory Concentration (MIC) K. pneumoniae ATCCBAA-1705. How it is done: as §1
Experiment [7] has as its system P. aeruginosa SR27060. The following applies: Pseudomonas aeruginosa, SR27060; IMP-1 MBL producing strain (carbapenem resistance strain); cation-adjusted Mueller Hinton broth containing human apo-transferrin; 5×10^5 cfu/mL; read-out: Minimum Inhibitory Concentration (MIC) P. aeruginosa SR27060. How it is done:
as §1

In brackets after ≈: the same amount, converted by molar mass.

In the case of `CC(C)(O/N=C(\C(=O)N[C@@H]1C(=O)N2C(c3nn[n-]n3)=C(C[n+]3ccc(C(=O)c4ccc(O)c(O)c4Cl)cc3)CS[C@H]12)c1csc(N)n1)C(=O)[O-].[Na+]` [Compound I-48], the MIC is at most 0.031 µg/mL in experiment [1]; 0.25 µg/mL in experiment [2]; 0.25 µg/mL in experiment [3]; 0.125 µg/mL in experiment [4]; 0.5 µg/mL in experiment [5]; at most 0.031 µg/mL in experiment [6]. Also, in experiment [7], the MIC amounted to 0.25 µg/mL.
For `CC(C)(O/N=C(\C(=O)N[C@@H]1C(=O)N2C(c3nnn[n-]3)=C(C[N+]34CCC[C@H]3CN(C(=O)c3cc(O)c(O)c(Cl)c3)CC4)CS[C@H]12)c1csc(N)n1)C(=O)[O-].[Na+]` (stereo partly drawn) [Compound I-13], the MIC was 0.125 µg/mL in experiment [1]; 0.5 µg/mL in experiment [2]; 1 µg/mL in experiment [3]; 2 µg/mL in experiment [4]; 2 µg/mL in experiment [5]; at most 0.031 µg/mL in experiment [6]. In experiment [7], the MIC was found to be 0.5 µg/mL.
For `CC(C)(O/N=C(\C(=O)N[C@@H]1C(=O)N2C(c3nnn[n-]3)=C(Cn3cc(NC(=O)c4ccc(O)c(O)c4Cl)[n+]4c3CCCC4)CS[C@H]12)c1csc(N)n1)C(=O)[O-].[Na+]` [Compound I-16], the MIC in experiment [1] is 0.125 µg/mL; in experiment [2] it was 0.25 µg/mL; in experiment [3], 0.25 µg/mL; in experiment [4], 1 µg/mL; in experiment [5], 1 µg/mL; in experiment [6], at most 0.031 µg/mL. Also, the MIC in experiment [7] worked out at 0.25 µg/mL.
`CC(C)(O/N=C(\C(=O)N[C@@H]1C(=O)N2C(c3nnn[n-]3)=C(C[N+]3(C)[C@@H]4CC[C@H]3C[C@@H](NC(=O)c3ccc(O)c(O)c3Cl)C4)CS[C@H]12)c1csc(N)n1)C(=O)[O-].[Na+]` (stereo partly drawn) [Compound I-2]: the MIC is 0.25 µg/mL in experiment [1]; 0.5 µg/mL in experiment [2]; 1 µg/mL in experiment [3]; 0.25 µg/mL in experiment [4]; 1 µg/mL in experiment [5]; at most 0.031 µg/mL in experiment [6]. Besides, the MIC in experiment [7] amounted to 1 µg/mL.
In the case of `CC(C)(O/N=C(\C(=O)N[C@@H]1C(=O)N2C(c3nnn[n-]3)=C(C[N+]3(CCNC(=O)c4cc(O)c(O)c(Cl)c4)CCCC3)CS[C@H]12)c1csc(N)n1)C(=O)[O-].[Na+]` [Compound I-52], the MIC in experiment [1] is 0.25 µg/mL; in experiment [2], 0.125 µg/mL; in experiment [3], 0.5 µg/mL; in experiment [4], 2 µg/mL; in experiment [5], 1 µg/mL; in experiment [6], at most 0.031 µg/mL. Besides, in experiment [7], the MIC turned out to be 1 µg/mL.
In the case of `CC(C)(O/N=C(\C(=O)N[C@@H]1C(=O)N2C(c3nnn[n-]3)=C(C[N+]3(CCNC(=O)c4ccc(O)c(O)c4Cl)CCCC3)CS[C@H]12)c1csc(N)n1)C(=O)[O-].[Na+]` [Compound I-1], the MIC is 0.5 µg/mL in experiment [1]; 0.063 µg/mL in experiment [2]; 0.125 µg/mL in experiment [3]; 0.5 µg/mL in experiment [4]; 0.5 µg/mL in experiment [5]; at most 0.031 µg/mL in experiment [6]. Also, in experiment [7], the MIC came out at 0.5 µg/mL.
For `CC(C)(O/N=C(\C(=O)N[C@@H]1C(=O)N2C(c3nnn[n-]3)=C(C[N+](C)(C)CCNC(=O)c3ccc(O)c(O)c3Cl)CS[C@H]12)c1csc(N)n1)C(=O)[O-].[Na+]` [Compound I-11], the MIC in experiment [1] is 0.25 µg/mL; in experiment [2], 0.125 µg/mL; in experiment [3], 0.5 µg/mL; in experiment [4] it was 0.063 µg/mL; in experiment [5], 0.25 µg/mL; in experiment [6] it was at most 0.031 µg/mL. Besides, the MIC in experiment [7] came to 1 µg/mL.
In the case of `CC(C)(O/N=C(\C(=O)N[C@@H]1C(=O)N2C(c3nn[n-]n3)=C(C[n+]3ccc(NCc4ccc(O)c(O)c4Cl)cc3)CS[C@H]12)c1csc(N)n1)C(=O)[O-].[Na+]` [Compound I-49], the MIC in experiment [1] was 0.063 µg/mL; in experiment [2], 0.25 µg/mL; in experiment [3], 0.5 µg/mL; in experiment [4] it was 0.25 µg/mL; in experiment [5], 1 µg/mL; in experiment [6], at most 0.031 µg/mL. The MIC in experiment [7] is 1 µg/mL.
In the case of `Nc1nc(/C(=N/O[C@@H](CC(=O)[O-])C(=O)[O-])C(=O)N[C@@H]2C(=O)N3C(c4nnn[n-]4)=C(C[N+]45CCC[C@H]4CN(C(=O)c4cc(O)c(O)c(Cl)c4)CC5)CS[C@H]23)cs1.[Na+].[Na+]` (stereo partly drawn) [Compound I-4], the MIC in experiment [1] was 0.5 µg/mL; in experiment [2], 0.125 µg/mL; in experiment [3], 0.5 µg/mL; in experiment [4] it was 4 µg/mL; in experiment [5], 0.5 µg/mL; in experiment [6], at most 0.031 µg/mL. For the same compound, in experiment [7], the MIC turned out to be 0.5 µg/mL.
With `CC(C)(O/N=C(\C(=O)N[C@@H]1C(=O)N2C(c3nnn[n-]3)=C(C[N+]34CCC(CNC(=O)c5cc(=O)c(O)cn5O)(CC3)CC4)CS[C@H]12)c1csc(N)n1)C(=O)[O-].[Na+]` [Compound I-18], the MIC in experiment [1] was 0.5 µg/mL; in experiment [2], 0.125 µg/mL; in experiment [3] it was 0.25 µg/mL; in experiment [4], 1 µg/mL; in experiment [5], 0.125 µg/mL; in experiment [6], at most 0.031 µg/mL. The MIC in experiment [7] turned out to be 2 µg/mL.
Regarding `Cc1c(O)c(O)cc2cc[n+](CC3=C(c4nnn[n-]4)N4C(=O)[C@@H](NC(=O)/C(=N\OC(C)(C)C(=O)[O-])c5csc(N)n5)[C@H]4SC3)cc12.[Na+]` [Compound I-22], the MIC in experiment [1] was at most 0.031 µg/mL; in experiment [2] it was 0.063 µg/mL; in experiment [3], 0.125 µg/mL; in experiment [4], 0.25 µg/mL; in experiment [5], 0.125 µg/mL; in experiment [6], at most 0.031 µg/mL. Besides, in experiment [7], the MIC turned out to be 0.25 µg/mL.
In the case of `CC(C)(O/N=C(\C(=O)N[C@@H]1C(=O)N2C(C(=O)[O-])=C(C[N+]34CCC(CNC(=O)c5ccc(O)c(O)c5Cl)(CC3)CC4)CS[C@H]12)c1csc(N)n1)C(=O)[O-].[Na+]` [Comparative Compound 1, reference compound], the MIC was 0.5 µg/mL in experiment [1]; 2 µg/mL in experiment [2]; 4 µg/mL in experiment [3]; above 32 µg/mL in experiment [4]; 1 µg/mL in experiment [5]; 0.125 µg/mL in experiment [6]. For the same compound, in experiment [7], the MIC is 4 µg/mL.
As to `CC(C)(O/N=C(\C(=O)N[C@@H]1C(=O)N2C(c3nnn[n-]3)=C(C[N+]34CCC(CNC(=O)c5ccc(O)c(O)c5Cl)(CC3)CC4)CS[C@H]12)c1csc(N)n1)C(=O)[O-].[Na+]` [Compound I-10], the MIC in experiment [1] is 0.25 µg/mL; in experiment [2], 0.5 µg/mL; in experiment [3] it was 1 µg/mL; in experiment [4], 2 µg/mL; in experiment [5] it was 0.5 µg/mL; in experiment [6], at most 0.031 µg/mL. Also, the MIC in experiment [7] was determined as 2 µg/mL.
Regarding `CC(C)(O/N=C(\C(=O)N[C@@H]1C(=O)N2C(c3nnn[nH]3)=C(C[N+]3(CCNC(=O)c4cc(O)c(O)c(F)c4)CCCC3)CS[C@H]12)c1csc(N)n1)C(=O)[O-]` [Compound I-56], the MIC in experiment [1] is at most 0.031 µg/mL; in experiment [2] it was 0.125 µg/mL (≈ 0.165 µM); in experiment [3] it was 0.25 µg/mL (≈ 0.329 µM); in experiment [4], 0.25 µg/mL (≈ 0.329 µM); in experiment [5], 0.5 µg/mL (≈ 0.658 µM); in experiment [6] it was at most 0.031 µg/mL. The MIC in experiment [7] worked out at 0.5 µg/mL (≈ 0.658 µM).
Take `Nc1nc(/C(=N/O[C@@H](CC(=O)[O-])C(=O)[O-])C(=O)N[C@@H]2C(=O)N3C(c4nnn[n-]4)=C(C[N+]4(CCNC(=O)c5ccc(O)c(O)c5Cl)CCCC4)CS[C@H]23)cs1.[Na+].[Na+]` [Compound I-3]: the MIC in experiment [1] was 0.5 µg/mL; in experiment [2], at most 0.031 µg/mL; in experiment [3] it was 0.063 µg/mL; in experiment [4], 2 µg/mL; in experiment [5], 0.25 µg/mL; in experiment [6], at most 0.031 µg/mL. In addition, the MIC in experiment [7] is 1 µg/mL.
